Assay [1] concerns p53 expression in Caco-2 cells. The assay is described as follows: p53 mRNA expression in Caco-2 cells by quantitative real-time RT-PCR. It is filed as cell-based. The protocol:
Imiquimod was dissolved in dimethyl sulfoxide (DMSO). Stock concentration was 10 mg/ml. From these stocks stepwise dilutions were prepared. […] The final concentration of DMSO was 0.1%.
The colorectal adenocarcinoma cell line Caco-2 was obtained from ATCC [American Type Culture Collection], Wesel, Germany. The cells were plated in 24-well plates (BD Bioscience, Heidelberg, Germany). The cells were cultured in DMEM supplemented with 10% heat-inactivated foetal bovine serum and 10% non essential amino acids in a humidified atmosphere containing 5% CO2 at 37° C. When confluent, the cells were washed and resuspended in serum-free Dulbecco's Modified Eagle Medium (DMEM) at 10^6 cells ml^−1. […]
RNA was prepared from frozen lysates using RNeasy, Qiagen (Hilden, Germany). One-tube Reverse Transcriptase-Polymerase Chain Reaction (RT-PCR) was performed using Quantitect Probe RT-PCR Kit from QIAGEN (Hilden, Germany). Expression of p53 was determined in relation to beta-actin by real time RT-PCR using SYBR Green assays on an ABI Prism 7900. […] Quantity of mRNA was calculated using […] method. For each RT-PCR the threshold cycle (CT) was determined, being defined as the cycle at which the fluorescence exceeds 10 times the standard deviation of the mean baseline emission for cycles 3 to 10. β-actin was used as a housekeeping gene to normalize mRNA levels: Ct (Parameter)−Ct (β-actin)=ΔCt (Parameter). […]

Another assay concerns MC-26 colon carcinoma. As to conditions: mice; oral treatment; cited from earlier work.
For another assay, the system named is p53. To be noted: patients with Actinic Keratoses; under imiquimod therapy; cited from earlier work.

Regarding `CC(C)Cn1cnc2c(N)nc3ccccc3c21` [imiquimod, 1-(2-methylpropyl)-1H-imidazo[4,5-c]quinolin-4-amine], the “statistical significance of increase in p53 mRNA levels” value in assay [1] (10 and 100 μM imiquimod, one-way ANOVA with Dunnett's post-hoc) is recorded as “reached statistical significance”. In assay [1] (concentrations up to 100 μM, FIG. 1), the “p53 mRNA expression (relative to beta-actin and vehicle control)” value is given as “increases p53 mRNA expression dose dependently”. Further, the “development of MC-26 colon carcinoma” value in the assay with MC-26 colon carcinoma is given as “significantly inhibited the development of MC-26 colon carcinoma”. In addition, in the assay on p53, the “gene expression for p53” value is “no differences in gene expression for p53 were found”.

Source of the values: patent US8008319B2, “Treatment of colorectal polyps with imidazoquinoline derivatives” (Meda Pharma GmbH & Co. KG, priority 2008, dated 2011).
